The values that follow come from PubChem BioAssay (NCI).

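Exposure lasted 48 hours, with cells grown in 96-well plates and compounds tested at five concentrations. The concentration for full growth arrest is given as TGI.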

Test systems include 786-0 renal; DU-145 prostate; HS 578T breast; HT29 colon; MDA-MB-231 breast; NCI-H522 lung; PC-3 prostate; RPMI-8226 leukemia; SK-MEL-5 melanoma; TK-10 renal; UO-31 renal.
Common to all, as to assay: NCI tumour cell line growth inhibition, 48 h

On to `COC(OC)C1OC(CO)C(n2ccc(N)nc2=O)C1O` (configuration not stated), for which the TGI in the assay with 786-0 renal, in the assay with DU-145 prostate, in the assay with HS 578T breast, with HT29 colon, in the assay with MDA-MB-231 breast and in the assay with NCI-H522 lung was over 100 µM in each case. Also, the TGI in the assay with PC-3 prostate, in the assay with RPMI-8226 leukemia, with SK-MEL-5 melanoma, in the assay with TK-10 renal and with UO-31 renal was over 100 µM in each case.
With `O=C1C=C(Br)c2c(Br)sc(Br)c21`, the TGI with 786-0 renal was over 19.6 µM; with DU-145 prostate it was 29 µM; with HS 578T breast, over 100 µM; in the assay on HT29 colon, 44.5 µM; with MDA-MB-231 breast, 33.9 µM; with NCI-H522 lung it was 3.99 µM. Also, the TGI was 26.4 µM in the assay with PC-3 prostate; over 100 µM with RPMI-8226 leukemia; 31.4 µM with SK-MEL-5 melanoma; 23.5 µM in the assay on TK-10 renal; 10.3 µM with UO-31 renal.
As to `CN(NC(=O)CCCl)C1=NCCCCN1`, the TGI in the assay on 786-0 renal, with DU-145 prostate, with HS 578T breast, with HT29 colon, with MDA-MB-231 breast and in the assay on NCI-H522 lung was over 100 µM in each case. Moreover, the TGI in the assay with PC-3 prostate, with RPMI-8226 leukemia, in the assay with SK-MEL-5 melanoma, with TK-10 renal and in the assay on UO-31 renal was over 100 µM in each case.
Regarding `O=S1(=O)c2ccccc2C(=NO)c2ccccc21`, the TGI in the assay on 786-0 renal, in the assay on DU-145 prostate, with HS 578T breast, in the assay on HT29 colon, in the assay on MDA-MB-231 breast and with NCI-H522 lung was over 100 µM throughout. Besides, the TGI in the assay on PC-3 prostate, in the assay with RPMI-8226 leukemia, in the assay with SK-MEL-5 melanoma, in the assay with TK-10 renal and in the assay with UO-31 renal was over 100 µM in each case.
`C=CCNC(=O)NC1=CSC2=NC(=O)C3(NN12)c1ccccc1-c1ccccc13`: the TGI in the assay on 786-0 renal, with DU-145 prostate, in the assay on HS 578T breast, in the assay with HT29 colon, in the assay with MDA-MB-231 breast and in the assay on NCI-H522 lung was over 10 µM each time. Also, the TGI in the assay with PC-3 prostate, in the assay on RPMI-8226 leukemia, with SK-MEL-5 melanoma, in the assay with TK-10 renal and in the assay with UO-31 renal was over 10 µM in each case.
For the compound `O=[N+]([O-])c1ccc(N=Nc2c(O)c(S(=O)(=O)O)cc3cc(S(=O)(=O)O)ccc23)cc1`, the TGI in the assay with 786-0 renal, in the assay on DU-145 prostate, in the assay with HS 578T breast, in the assay with HT29 colon, in the assay with MDA-MB-231 breast and in the assay on NCI-H522 lung was over 100 µM in each case. Moreover, the TGI in the assay on PC-3 prostate, with RPMI-8226 leukemia, with SK-MEL-5 melanoma, in the assay with TK-10 renal and in the assay on UO-31 renal was over 100 µM each time.
Take `C(=C\c1ccccc1)/C=N/c1nc2cc3sc(/N=C/C=C/c4ccccc4)nc3cc2s1`: the TGI in the assay with 786-0 renal, with DU-145 prostate, with HS 578T breast, in the assay on HT29 colon, in the assay on MDA-MB-231 breast and with NCI-H522 lung was over 100 µM each time. The TGI in the assay with PC-3 prostate, in the assay on RPMI-8226 leukemia, with SK-MEL-5 melanoma, in the assay with TK-10 renal and in the assay with UO-31 renal was over 100 µM each time.
Take `Cc1sc(/N=C/c2c[nH]c3ccccc23)c(C#N)c1C`: the TGI with 786-0 renal, in the assay on DU-145 prostate, in the assay with HS 578T breast, in the assay with HT29 colon, with MDA-MB-231 breast and in the assay on NCI-H522 lung was over 100 µM throughout. The TGI is over 100 µM in the assay on PC-3 prostate; over 100 µM in the assay with RPMI-8226 leukemia; 53.2 µM in the assay on SK-MEL-5 melanoma; 74.9 µM in the assay on TK-10 renal; over 100 µM in the assay with UO-31 renal.
For the compound `C=CCSC1=N/C(=C\c2ccccc2)C(=O)N1CC=C`, the TGI with 786-0 renal is over 100 µM; in the assay on DU-145 prostate, over 100 µM; in the assay with HS 578T breast, over 89.4 µM; with HT29 colon, over 66.8 µM; in the assay with MDA-MB-231 breast, over 100 µM; in the assay on NCI-H522 lung, over 100 µM. Besides, the TGI in the assay with PC-3 prostate was over 75.8 µM; in the assay with RPMI-8226 leukemia, over 62.3 µM; in the assay with SK-MEL-5 melanoma, 37.3 µM; in the assay on TK-10 renal, over 100 µM; in the assay with UO-31 renal, over 100 µM.
As for `O=C(c1ccccc1)c1ccc2nc(-c3c(Cl)c(Cl)c(Cl)c(Cl)c3C(=O)N/N=C/c3ccccc3)[nH]c2c1`, the TGI was 73.7 µM in the assay on 786-0 renal; over 100 µM in the assay with DU-145 prostate; over 100 µM in the assay on HS 578T breast; over 100 µM in the assay on HT29 colon; 79.2 µM with MDA-MB-231 breast; 55.3 µM in the assay with NCI-H522 lung. Besides, the TGI in the assay on PC-3 prostate was over 100 µM; in the assay on RPMI-8226 leukemia, 63 µM; in the assay with SK-MEL-5 melanoma, 33.4 µM; in the assay with TK-10 renal it was over 100 µM; with UO-31 renal, over 100 µM.
Consider `Cc1nc2ccc(S(=O)(=O)O)cc2c(=O)n1-c1ccc(C(=O)NN2C(=O)C(Cl)C2c2ccccc2O)cc1` (configuration not stated), for which the TGI in the assay on 786-0 renal, in the assay on DU-145 prostate, with HS 578T breast, with HT29 colon, in the assay on MDA-MB-231 breast and with NCI-H522 lung was over 100 µM in each case. The TGI in the assay on PC-3 prostate, with RPMI-8226 leukemia, in the assay with SK-MEL-5 melanoma, in the assay on TK-10 renal and with UO-31 renal was over 100 µM throughout.
For `COc1ccc(N=N/C(=N/NC(=O)c2ccccc2)c2ccc(N(CCC#N)CCC#N)cc2C)cc1`, the TGI is over 100 µM with 786-0 renal; over 100 µM in the assay on DU-145 prostate; 75.2 µM with HS 578T breast; 55 µM in the assay on HT29 colon; over 100 µM in the assay on MDA-MB-231 breast; 36.1 µM with NCI-H522 lung. Also, the TGI with PC-3 prostate, in the assay with RPMI-8226 leukemia, in the assay with SK-MEL-5 melanoma, in the assay with TK-10 renal and in the assay on UO-31 renal was over 100 µM each time.
